Paper PMC9423655, “Huntington’s disease phenotypes are improved via mTORC1 modulation by small molecule therapy” (PLoS ONE, 2022)

Assays:
[1] = system: mTORC1 pathway in striatum; assay: Chronic 6-week treatment: striatum immunoblots; assay type: in vivo, N171-82Q mice
Description: Animals were sacrificed by live decapitation one hour after the last oral dosing. Whole hearts were excised, blot-dried and weighed on an analytical balance. The heart was bisected transversely and the apical halves was preserved for cardiomyocyte and fibrosis staining. Left tibias were isolated and measured with an electronic caliper. The brain left hemisphere was preserved for MSN size measurement. The brain right hemisphere was microdissected and the medial pre-frontal cortex, striatum, cortex, hippocampus and cerebellum were collected.
Specific regions of the brain and heart were homogenized using a Next Advance Bullet Blender Storm in Lysis Buffer (Cell lysis buffer: 1% Triton X-100, 50 mM HEPES pH 7.4, 100 mM sodium chloride, 2 mM EDTA, 10 mM Beta-glycerophosphate, 10 mM Sodium pyrophosphate, and 1 protease inhibitor) at 4°C. Lysates were cleared by centrifugation at 13,200 rpm at 4°C for 10 minutes. Equal amounts of total protein from each sample were denatured and, resolved by SDS-PAGE. Membranes were imaged using the LI-COR imaging system. Proteins levels are normalized to tubulin, actin or GAPDH levels and further normalized to vehicle treated mice for each tissue.
Fig 3 Activation of the mTORC1 pathway in the striatum following daily oral dosing of NV-5297. (A) Representative immunoblots of the striatum for normalized phosphorylated S6 [^S240/244pS6], S6, phosphorylated Akt [^S437pAkt], Akt, phosphorylated mTOR [^S2448pmTOR], mTOR, DARPP-32, phosphorylated 4E-BP1 [^Thr37/46p4E-BP1], 4E-BP1 and Actin from homogenized striatum isolated from N171-82Q males after 6 weeks of daily oral dosing of NV-5297 (160 mg/kg) or vehicle [Veh]. (B) Quantification of the immunoblots from homogenized striatum isolated 1 hour after the final oral dosing with NV-5297 (160 mg/kg; n = 14) normalized to loading control levels and further normalized to vehicle treated mice (n = 15). A significant Spearman correlation is present between pS6/S6 and DARPP32 levels. Data are presented as mean ± SEM. *P ≤ 0.05, ***P ≤ 0.001, ****P ≤ 0.0001 (one-tailed unpaired Student’s t-test [pmTOR/mTOR, DARPP-32], with a Welch’s correction [pS6/S6, p4E-BP1/4E-BP1], Mann-Whitney test [pAkt/Akt].

SesnTKO HEK293T cells = assay: mTORC1 activation (p70S6K1) in HEK293T cells null for all three Sestrin isoforms; assay type: cell-based; details: leucine-starved 50 minutes, treatment 10 minutes
Method: All cell lines were cultured in DMEM (Corning, #MT10013CV) supplemented with 10% heat-inactivated FBS (Gibco, #16140–071). All cell lines were maintained at 37°C and 5% CO2. For amino acid starvation, cells were rinsed once with and incubated Amino acid-free RPMI (US Biologicals, #R8999-04A) supplemented with 10% dialyzed FBS (Gibco, #26400044) for 50 min followed by treatment with NV-5297, leucine, or vehicle for 10 minutes. For leucine starvation, cells were rinsed once with and incubated in leucine-free DMEM (AthenaES, #0420) supplemented with 10% dialyzed FBS (Gibco, #26400044) for 50 minuted followed by treatment with NV-5297, leucine, or vehicle for 10 minutes.
To ascertain if Sestrins and the GATOR pathway are required for NV-5297 activity, we tested mTORC1 activation in cells null for either all three Sestrin isoforms [SesnTKO] or for the GATOR1 component Npr13 [Npr13KO] [44]. […]
(A) Activation of the mTORC1 pathway by NV-5297. […] Representative immunoblots of ^T389pS6K1 and quantification of the normalized level of ^T389pS6K1 from 8 independent experiments (F) show TORC1 activity in unedited HEK-293T cells, HEK-293T cells deficient for Sestrin 1 (Sesn1), 2 (Sesn2) and 3 (Sesn3) (D) or HEK-293T cells deficient for the GATOR1 component Nprl3 (E) after 50 minutes leucine starvation followed by the addition of vehicle, NV-5297 or leucine for 10 minutes. […]

N171-82Q HD mice = assay: Chronic 6-week treatment: weight, forelimb grip strength, accelerating rotarod; assay type: in vivo; details: N171-82Q mice
Method: The initial trial consisted in one week of oral dosing in 12 weeks old N171-82Q males. The chronic 6 weeks treatment (Veh n = 15, NV-5297 n = 14) took place from 6 to 12 weeks of age. The cardiac stress took place in animals from 10 to 12 weeks of age (Veh-Sal n = 9, NV-Sal n = 10, Veh-Iso n = 16, NV-Iso n = 11).
The accelerated rotarod (model 47600; Ugo Basile, Comerio, Italy) test was carried out as previously described. Mice were tested at 5 (baseline) and 12 weeks of age. Briefly, mice were habituated to the test room for an hour. On the first day, mice were trained on the rotarod for 5 minutes at 4 rpm. Mice were then tested in three trials per day (with at least 30 minutes of rest between trials) for four consecutive days. For each trial, the rotarod accelerated from 4 to 40 rpm over 4 minutes with constant speed at 40 rpm for an additional minute. Trials were stopped at 300 seconds. Latency to fall (or two consecutive rotations without running) was recorded for every trial. For grip strength, mice were tested at 5 (baseline), 9 and 12 weeks of age. Mice were habituated to the test room for 1 hour. The mouse held a pull bar with both paws and are then pulled horizontally until they let go of the pull bar. Forelimb grip strength at the peak tension was measured five times per mice (Columbus Instrument). There were at least 30 minutes of rest between trials. The grip strength is calculated as the average of the four highest grip strength recorded.

[2] = N171-82Q mice, 160 mg/kg daily 6 weeks
[3] = N171-82Q mice, 160 mg/kg daily 6 weeks, 1 hour after final dose
[4] = oral 160 mg/kg daily for 6 weeks

## CC(C)(C[C@H](N)C(=O)O)C(F)(F)F [NV-5297, (S)-2-amino-5,5,5-trifluoro-4,4-dimethylpentanoic acid]
[1]; [2]
  striatal p4E-BP1/4E-BP1: unchanged
  striatal pAkt/Akt: unchanged
  striatal pmTOR/mTOR: unchanged
[1]; [3]
  striatal DARPP-32: significantly elevated
  striatal pS6: significantly elevated
[1]; NV-5297 daily treatment, response to reviewers
  duration of mTORC1 pathway activation: ~ 3 hours per day
SesnTKO HEK293T cells
  p70S6K1 levels: remained unchanged
N171-82Q HD mice; 12 weeks of age, oral 160 mg/kg daily for 6 weeks
  accelerating rotarod motor performance over 4-day trial: improved rotarod motor performance
N171-82Q HD mice; NV-5297 treatment, response to reviewers
  adverse effects to the treatment: No mice had explicit adverse effects
N171-82Q HD mice; [4]
  forelimb grip strength: did not impact
  weight loss: did not impact
